One experiment has as its system huntingtin aggregates. The experiment in a line: Fluorescence microscopy of huntingtin aggregates in transfected cells. The class given is cell-based, human. The conditions noted are these: HEK293 transfected with pEGFP-Q74; genistein 30, 60 and 100 µM; 48 h; vs DMSO control (Fig. 1). The method, then: (§1) • Fig. 1. Number and average size of huntingtin aggregates in human embryonic kidney cells transfected with plasmid pEGFP-Q74 (bearing the 1st exon of the HTT gene with 74 CAG repeats), treated with genistein (30, 60 and 100 µM) or DMSO (control cells), in a volume equal to that of genistein, for 48 h. Error bars indicate standard deviation. Statistical analysis was performed with the t-Student test. The differences were considered significant at p<0.05. • Fig. 2. Relative level of mutated huntingtin in human embryonic kidney cells transfected with plasmid pEGFP-Q74 (bearing the 1st exon of the HTT gene with 74 CAG repeats), treated with genistein (30, 60 and 100 µM) or DMSO (control cells), in a volume equal to that of genistein, for 96 h. Actin was used as an internal control. • Fig. 3. […] Intensity of bands was estimated using the Quantity One software. • Fig. 5. Number (calculated per one cell) and volume of acidic organelles in human embryonic kidney cells transfected with plasmid pEGFP-Q74 (bearing the 1st exon of the HTT gene with 74 CAG repeats), treated with genistein (30, 60 and 100 µM) or DMSO (control cells), in a volume equal to that of genistein, for 96 h. […] The co-localization Pearson factor was calculated by using the ImageJ software. […]

Experiment [1] relates to mutated huntingtin. The experiment can be described thus: Western blotting of the mutated huntingtin level. The class given is cell-based, human. The conditions noted are these: HEK293 transfected with pEGFP-Q74; genistein 30, 60 and 100 µM; 96 h; actin internal control (Fig. 2). Here is the method:
as §1

For experiment [2], the system named is human embryonic kidney cells (HEK293) transfected with plasmid pEGFP-Q74. The experiment in a line: MTT viability test of cells transfected with pEGFP-Q74. It is filed as cell-based. The conditions noted are these: genistein 30, 60 and 100 µM, 48 h, MTT test (Fig. 3). The method, then:
as §1

A further experiment has as its system LC3-II protein. The experiment can be described thus: Immunodetection (Western blotting) of the autophagy marker LC3-II. The class given is cell-based, human. The settings on record: 96 h. Here is the method: as §1
Background: In western blotting, separated proteins are transferred to a membrane and probed.

For the next experiment, the system named is acidic organelles. The experiment can be described thus: LysoTracker Red staining of acidic organelles (lysosomes), ImageJ analysis. The class given is cell-based, human. The conditions noted are these: 96 h, HEK293 transfected with pEGFP-Q74, LysoTracker Red (Fig. 5). An excerpt: • Fig. 1. […] Error bars indicate standard deviation. […] Error bars indicate standard deviation. […] Error bars indicate standard deviation.

In experiment [3] the test system is aggregates of mutated huntingtin with lysosomes. The experiment in a line: Co-localization of mutated huntingtin aggregates with lysosomes (fluorescence microscopy, Pearson coefficient). It is filed as cell-based, human. The settings on record: 100 µM genistein; 96 h; HEK293 transfected with pEGFP-Q74; vs DMSO control (Fig. 6). Here is the method: as §1, with “2.” for “2. Relative level of mutated huntingtin in human embryonic kidney cells transfected with plasmid pEGFP-Q74 (bearing the 1st exon of the HTT gene with 74 CAG repeats), treated with genistein (30, 60 and 100 µM) or DMSO (control cells), in a volume equal to that of genistein, for 96 h. Actin was used as an internal control. • Fig. 3.”
In order to test whether mutant huntingtin is transported into lysosomes for degradation, co-localization of aggregates of mutated huntingtin with lysosomes was assessed using a fluorescent microscope (Fig. 6). […]

Experiment [4] deals with mutated huntingtin. The experiment in a line: Western blotting of mutated huntingtin with lysosomal function inhibited by chloroquine. The class given is cell-based, human. The conditions noted are these: in the presence of 10 µM chloroquine; genistein 30, 60 and 100 µM; 96 h; HEK293 transfected with pEGFP-Q74 (Fig. 7). The method, then:
as §1

For `O=c1c(-c2ccc(O)cc2)coc2cc(O)cc(O)c12` [genistein, 5,7-dihydroxy-3-(4-hydroxyphenyl)-4H-1-benzopiran-4-one], in the experiment with huntingtin aggregates, the “number of mutant huntingtin aggregates in cells” value was “decrease in both size and number”; the “size of mutant huntingtin aggregates in cells” value was “decrease in both size and number”. In addition, the “level of mutant huntingtin in cells” value in the experiment with mutated huntingtin [1] is “significantly reduces”. The viability of cells result in experiment [2] was “increase in viability”. Also, the LC3-II protein amount result in the experiment on LC3-II protein (HEK293 transfected with pEGFP-Q74, genistein 30, 60 and 100 µM, vs DMSO control (Fig. 4)) was “genistein-concentration-dependent increase”. The fold induction at 100 µM in the experiment on LC3-II protein (Homo sapiens, highest genistein concentration (100 µM), HEK293 transfected with pEGFP-Q74 (Fig. 4), read-out: LC3-II protein level relative to control experiment) is roughly 4. In the experiment with acidic organelles (30 µM genistein), the “number of acid organelles” value is given as “increase is visible” and the “volume of acid organelles” value was “increase in the volume of acid organelles was evident”. Further, the “number of acid organelles” value with acidic organelles (100 µM genistein) is “difference relative to the control is significant”. For the same compound, the “co-localization of aggregates of mutated huntingtin with lysosomes” value in experiment [3] is recorded as “increased significantly”. In addition, the “level of mutated huntingtin” value with mutated huntingtin [4] is recorded as “did not change significantly”.

These data come from patent publication EP3300730A1, “THE MEDICAL USE OF 5,7-DIHYDROXY-3-(4-HYDROXYPHENYL)-4H-1-BENZOPIRAN-4-ONE IN THE THERAPY OF HUNTINGTON DISEASE AND PHARMACEUTICALLY ACCEPTABLE FORM OF THE DRUG” (Uniwersytet Gdanski, priority 2016, dated 2018).
